Patent publication EP4660190A1, “PHARMACEUTICALLY ACCEPTABLE SALT OF COMPOUND AND PREPARATION METHOD THEREFOR” (Jiangsu Chia Tai Fenghai Pharmaceutical Co., Ltd., priority 2023, dated 2024)
“And” between values parts separate entries of the source, which are not always exact repeats. Equal entries are not always repeated.

Key:
[1] = test system: Middle cerebral artery occlusion (MCAO) models of SD rata; test: Rat MCAO model, 28-day dosing, grid walking test; assay type: in vivo, SD rats; conditions: Mean±SD
Procedure: (§1) Middle cerebral artery occlusion (MCAO) models of SD rata were constructed by using the suture occlusion method. The rats were administered with the test compound for 28 consecutive days. The pharmacodynamic evaluation on the test compound for cerebral stroke was obtained based on general observation and neurobehavioral assessment. […] The ECA was ligated. The ICA was temporarily occluded. Sutures were threaded at both the proximal end and the distal end of CCA. The distal end was securely ligated, and a loosely tied knot was placed at the proximal end. A small incision was made on the CCA between these two sutures. […] The threading was halted temporarily when reaching the artery clamp of ICA. The pre-ligation suture was further tightened. The artery clamp blocking the blood flow in the ICA was removed, allowing the suture occlusion to be advanced into the ICA until it entered the intracranial region. […] The insertion was stopped at the moment, and the time was recorded. The artery clamp on the CCA was removed and the incision was closed after no active bleeding was observed. The ischemic rats were placed at room temperature to keep their body temperature at 37°C, and anesthesia induction could be carried out 120min later. The suture was slowly and gradually withdrawn under anesthesia until the proximal end retracted into the ECA, thereby initiating reperfusion of the middle cerebral artery. Animals received the designated dosage immediately (within 10 min) after reperfusion. This dosing regimen continued once daily for a duration of 28 days, with the day of operation being defined as D1 (Day 0). […] After the completion of the 28-day dosing period, all surviving animals in the study were euthanized, and their brains were rapidly collected for pathological analysis. […] Table 8 Results of Grid Walking Test

[2] = test system: Middle cerebral artery occlusion (MCAO) models of SD rata; test: Rat MCAO model, 28-day dosing, novel object recognition test; assay type: in vivo, SD rats; conditions: test on D27, Mean±SD
Procedure: as §1, with “Test (2) A novel object recognition test was performed on the last day of the treatment and the novel object recognition index (NRI) of animals in each group was calculated. […] The result has shown that Compound (I) has significant effect on animals with cognitive impairment caused by stroke (see details in Table 9). Table 9 Results of novel object recognition tests” for “Test”

[3] = test system: Middle cerebral artery occlusion (MCAO) models of SD rats; test: Rat MCAO model, 7 daily doses, TTC staining cerebral infarction; assay type: in vivo
Text: Middle cerebral artery occlusion (MCAO) models of SD rats were constructed using the suture occlusion method to evaluate the neuroprotective effect of the compound on neurons of rats after cerebral ischemia-reperfusion. […] The ECA was ligated. The ICA was temporarily occluded. Sutures were threaded at both the proximal end and the distal end of CCA. The distal end was securely ligated, and a loosely tied knot was placed at the proximal end. A small incision was made on the CCA between these two sutures. […] The threading was halted temporarily when reaching the artery clamp of ICA. The pre-ligation suture was further tightened. The artery clamp blocking the blood flow in the ICA was removed, allowing the suture occlusion to be advanced into the ICA until it entered the intracranial region. […] The insertion was stopped at the moment, and the time was recorded. The artery clamp on the CCA was removed and the incision was closed after no active bleeding was observed. The ischemic rats were placed at room temperature to keep their body temperature at 37°C, and anesthesia induction could be carried out 120min later. The suture was slowly and gradually withdrawn when the rats were maintained under anesthesia, so that the proximal end of the suture returned to the ECA, thereby initiating reperfusion of the middle cerebral artery. […] A single dose was administered immediately after reperfusion (within 10 minutes), followed by one dose per day for a total of 7 consecutive doses (including the first dose). Except for the initial administration, all subsequent doses were given between 4:00 PM and 7:00 PM each day. […] Animals were euthanized 7 days after ischemia reperfusion, and the brains were rapidly taken, frozen, and dissected for TTC staining. The normal tissues were rose-red after staining, and the infarcted tissues were white. The infarct size (%) percentage, calculated as the weight of infarcted tissues to the weight of the whole brain, is used to evaluate the degree of cerebral ischemic injury in rats. […] Table 12 Cerebral infarct size and cerebral infarction inhibition rate of experimental animals

[4] = 60mg/kg oral, 7 daily doses, 7 days after reperfusion, Mean±SD

`CCCCC1OC(=O)c2ccccc21` (stereo not drawn) [Butylphthalide, butylphthalide, reference compound] was tested, and the “Misstep frequency (times)” value ([1]; 60mg/kg p.o. q.d., 1W after operation, listed as NBP) was 7.37±3.03 times, the “Misstep frequency (times)” value ([1]; 60mg/kg p.o. q.d., 2W after operation) was 8.10± 2.97 times and the “Misstep frequency (times)” value ([1]; 60mg/kg p.o. q.d., 3W after operation) was 6.27± 2.890 times. The “Misstep frequency (times)” value ([1]; 60mg/kg p.o. q.d., 4W after operation) was 2.10± 1.46 times, the “Sniffing time (S) Familiar object” value ([2]; 60mg/kg p.o. q.d.) was 1.60± 1.01 S and the “Sniffing time (S) Novel object” value ([2]; 60mg/kg p.o. q.d.) was 4.94± 3.60 S. The “Cerebral infarction inhibition rate (%)” value [3, 4] was 28.624±14.597%, the “Infarct Size (%)” value [3, 4] was 14.241±2.912% and the “Infarct area weight” value [3, 4] was 0.175 ± 0.032 g.
`CCC/C(O)=C1/C(=O)Oc2ccccc21` [Compound (I)] was tested, and the “Misstep frequency (times)” value ([1]; high dose 20mg/kg p.o. q.d., 1W after operation, 20 mg/kg) was 4.23±1.44 times, the “Misstep frequency (times)” value ([1]; high dose 20mg/kg p.o. q.d., 1W after operation, listed as compound (I), 20 mg/kg) was 4.23±1.44 times and the “Misstep frequency (times)” value ([1]; high dose 20mg/kg p.o. q.d., 2W after operation) was 3.23± 2.56 times. For the same compound, the “Misstep frequency (times)” value ([1]; high dose 20mg/kg p.o. q.d., 3W after operation) was 2.50± 0.81 times, the “Misstep frequency (times)” value ([1]; high dose 20mg/kg p.o. q.d., 4W after operation) was 1.42± 1.11 times and the “Misstep frequency (times)” value ([1]; low dose 6mg/kg p.o. q.d., 1W after operation, 6 mg/kg) was 5.33± 2.33 times. The “Misstep frequency (times)” value ([1]; low dose 6mg/kg p.o. q.d., 1W after operation, listed as compound (I), 6 mg/kg) was 5.33±2.33 times, the “Misstep frequency (times)” value ([1]; low dose 6mg/kg p.o. q.d., 2W after operation) was 6.33± 3.53 times and the “Misstep frequency (times)” value ([1]; low dose 6mg/kg p.o. q.d., 3W after operation) was 4.38± 2.44 times. For the same compound, the “Misstep frequency (times)” value ([1]; low dose 6mg/kg p.o. q.d., 4W after operation) was 2.58± 1.55 times, the “Recognition index (%) Familiar object” value ([2]; high dose 20mg/kg p.o. q.d.) was 28.34± 17.06% and the “Sniffing time (S) Familiar object” value ([2]; high dose 20mg/kg p.o. q.d.) was 2.20± 1.66 S. For the same compound, the “Sniffing time (S) Novel object” value ([2]; high dose 20mg/kg p.o. q.d.) was 5.62± 3.60 S, the “Recognition index (%) Novel object” value ([2]; high dose 20mg/kg p.o. q.d., 20 mg/kg) was 71.66±17.06% and the “Recognition index (%) Familiar object” value ([2]; low dose 6mg/kg p.o. q.d.) was 29.02± 22.60%. The “Sniffing time (S) Familiar object” value ([2]; low dose 6mg/kg p.o. q.d.) was 1.54± 1.10 S, the “Sniffing time (S) Novel object” value ([2]; low dose 6mg/kg p.o. q.d.) was 4.74± 3.61 S and the “Recognition index (%) Novel object” value ([2]; low dose 6mg/kg p.o. q.d., 6 mg/kg) was 70.98±22.60%.
In the case of “(Z)-3-(1-hydroxybutenyl)benzofuran-2-one tromethamine salt [Example 10]”, the “Cerebral infarction inhibition rate (%)” value ([3]; rat, in vivo) is reported as 26.236± 12.737% and 31.023± 11.150%, the “Infarct Size (%)” value ([3]; rat, in vivo) is reported as 14.717±2.541 % and 13.762±2.225 % and the “Infarct area weight” value ([3]; rat, in vivo) is reported as 0.183 ± 0.036 g and 0.176 ± 0.030 g.
